Source: patent publication US4732977A, “Carbapenem antibiotics” (priority 1986, dated 1988)
Converted amounts (≈) assume the structure as drawn. Like-named read-outs stand apart in the source and are kept apart here.

Experiments:
[1] = test system: E. cloacae A-9659; assay: M.I.C., tube dilution; type: cell-based; conditions: overnight incubation at 37° C., Nutrient Broth
[2] = Blood levels in mice after intramuscular administration; conditions: for AUC / Cmax / half-life: 20 mg/kg;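 on all read-outs here: compounds dissolved in 0.1 M phosphate buffer at pH 7, data from one experiment using four mice for each compound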
Description: Compounds were solubilized in 0.1 M phosphate buffer pH 7.
a single test; 4 mice used per compound.
Compounds were solubilized in 0.1 M phosphate buffer, pH 7.
on a single test; 4 mice per compound.

[3] = test system: E. coli A20341-1; assay: M.I.C., tube dilution; type: cell-based; conditions: Nutrient Broth
[4] = test system: K. pneumoniae A20468; assay: M.I.C., tube dilution; type: cell-based; conditions: Nutrient Broth
[5] = test system: P. aeruginosa A-9843A; assay: M.I.C., tube dilution; type: cell-based; conditions: overnight incubation at 37° C., Nutrient Broth; listed as Ex. 15"C"
[6] = test system: S. pneumoniae A-9585; assay: M.I.C., tube dilution; type: cell-based; conditions: overnight incubation at 37° C., Nutrient Broth
[7] = test system: S. aureus A-9537; assay: M.I.C., tube dilution; type: cell-based
[8] = test system: S. faecalis A20688; assay: M.I.C., tube dilution; type: cell-based; conditions: Nutrient Broth
[9] = test system: P. morganii A15153; assay: M.I.C., tube dilution; type: cell-based; conditions: overnight incubation at 37° C.
[10] = test system: S. marcescens A20019; assay: M.I.C., tube dilution; type: cell-based; conditions: overnight incubation at 37° C., Nutrient Broth
[11] = test system: S. pyogenes A-9604; assay: M.I.C., tube dilution; type: cell-based; conditions: overnight incubation at 37° C., Nutrient Broth; listed as Ex. 15"C"
[12] = test system: P. mirabilis A-9900; assay: M.I.C., tube dilution; type: cell-based; conditions: Nutrient Broth
[13] = test system: E. coli A15119; assay: M.I.C., tube dilution; type: cell-based; conditions: overnight incubation at 37° C., Nutrient Broth
[14] = test system: E. cloacae A-9656; assay: M.I.C., tube dilution; type: cell-based; conditions: Nutrient Broth
[15] = test system: P. vulgaris A21559; assay: M.I.C., tube dilution; type: cell-based; conditions: Nutrient Broth
[16] = test system: K. pneumoniae A-9664; assay: M.I.C., tube dilution; type: cell-based; conditions: Nutrient Broth
[17] = test system: P. aeruginosa A21213; assay: M.I.C., tube dilution; type: cell-based; conditions: Nutrient Broth
[18] = test system: P. rettgeri A22424; assay: M.I.C., tube dilution; type: cell-based; conditions: overnight incubation at 37° C., Nutrient Broth
[19] = test system: S. aureus A-9606 (Pen-res.); assay: M.I.C., tube dilution; type: cell-based; conditions: overnight incubation at 37° C.
[20] = Half-life (stability) in buffer solution; type: physicochemical; conditions: 10^-4 M, (phosphate) buffer pH 7.4, 37° C.; read-out: half-life in solution (converted)
Description: T1/2 =9.8 h (measured at a concentration of 10^-4 M in phosphate buffer pH 7.4 at 36.8° C.).
UV (phosphate buffer, pH 7.4) λmax 294 nm (ε=8,202); T1/2 (phosphate buffer, pH 7.4, M=0.967, T=37° C.) 9.1 h.
(c of 10^-4 M in pH 7.4 phosphate buffer.
.tau.1/2 =20.8 h measured at 37° C. in buffer (pG 7.4) for a concentration of 10^-4 M.
.tau.1/2 =12.5 h measured at 37° C. in buffer pH 7.4 for a concentration of 10^-4 M.
h (measured for a concentration of 10^-4 M at 36.8° C. in buffer pH 7.4).
.tau.1/2 =26.0 h (measured for a concentration of 10^-4 M at 36.8° C. in buffer pH 7.4).
.tau.1/2 =16.6 h (measured at 36.8° C., pH 7.4 for a concentration of 10^-4 M) and (5R, 6S) 6-(1R-hydroxyethyl)7-oxo-3-[1,2,6-trimethylpyridinium-4-yl)methylthio]-1-azabicyclo[3.2.0 hept-2-ene-2-carboxylate, 0.010 g, 0.7%;
.tau.1/2 =11.6 h (measured for a concentration of 10^-4 M at 36.8° C. in buffer pH 7.4).
.tau.1/2 =13.4 h (measured for a concentration of 10^-4 M at 36.8° C. in buffer pH 7.4).
.tau.1/2 =14.4 h (measured for a concentration of 10^-4 M at 36.8° C. in buffer pH 7.4).
T 1/2: 10.2 h (biological buffer).
.tau.1/2 =10.2 h measured at 36.8° C. for a concentration of 10^-4 M in buffer pH 7.4.

[21] = overnight incubation at 37° C., listed as Ex. 15"C"
[22] = Escherichia coli, A203411, overnight incubation at 37° C., read-out: MIC
[23] = Klebsiella pneumoniae, A20468, overnight incubation at 37° C., read-out: MIC
[24] = Enterococcus faecalis, A20688, overnight incubation at 37° C., read-out: MIC
[25] = Escherichia coli, A15119, read-out: MIC
[26] = Enterobacter cloacae, A9656, overnight incubation at 37° C., read-out: MIC
[27] = Proteus vulgaris, A21559, overnight incubation at 37° C., read-out: MIC
[28] = Pseudomonas aeruginosa, A21213, overnight incubation at 37° C., read-out: MIC

SMILES: C[C@@H](O)C1C(=O)N2C(C(=O)[O-])=C(SCc3cn(C)n[n+]3C)CC12 (stereo partly drawn) [Example 15 "C", 3-[4-(N,N-dimethyl-1,2,3-triazolium)methylthio]-6α-[1-(R)-hydroxyethyl]-7-oxo-1-azabicyclo(3.2.0)hept-2-ene-2-carboxylate]
- MIC ([1]; listed as Ex. 15"C"): 0.13 µg/mL (≈ 0.384 µM)
- T1/2 ([2]; mice, 20 mg/kg i.m. (table 9)): 10 min
- AUC ([2]; mice, 20 mg/kg i.m. (table 9)): 7300 ng·h/mL
- Cmax ([2]; mice, 20 mg/kg i.m. (table 9)): 15100 ng/mL
- MIC ([3]; overnight incubation at 37° C.): 0.03 µg/mL (≈ 0.0887 µM)
- MIC [4, 21]: 0.13 µg/mL (≈ 0.384 µM)
- MIC [5]: 8 µg/mL (≈ 23.6 µM)
- MIC [6]: 0.0005 µg/mL (≈ 0.00148 µM)
- MIC ([7]; +50% serum, listed as Ex. 15"C"): 0.06 µg/mL (≈ 0.177 µM)
- MIC ([7]; overnight incubation at 37° C., Nutrient Broth, listed as Ex. 15"C"): 0.016 µg/mL (≈ 0.0473 µM)
- MIC ([8]; overnight incubation at 37° C.): 0.5 µg/mL (≈ 1.48 µM)
- MIC ([9]; printed M. morganii A15153, listed as Ex. 15"C"): 0.25 µg/mL (≈ 0.739 µM)
- MIC ([10]; listed as Ex. 15"C"): 0.13 µg/mL (≈ 0.384 µM)
- MIC [11]: 0.0003 µg/mL (≈ 0.000887 µM)
- MIC [12, 21]: 0.06 µg/mL (≈ 0.177 µM)
- MIC ([13]; listed as Ex. 15"C"): 0.06 µg/mL (≈ 0.177 µM)
- MIC [14, 21]: 0.13 µg/mL (≈ 0.384 µM)
- MIC [15, 21]: 0.06 µg/mL (≈ 0.177 µM)
- MIC [16, 21]: 0.06 µg/mL (≈ 0.177 µM)
- MIC [17, 21]: 0.5 µg/mL (≈ 1.48 µM)
- MIC ([18]; listed as Ex. 15"C"): 0.25 µg/mL (≈ 0.739 µM)
- MIC [19]: 0.03 µg/mL (≈ 0.0887 µM)

SMILES: C[C@@H](O)[C@H]1C(=O)N2C(C(=O)[O-])=C(SCc3cn(C)n[n+]3CC(=O)O)C[C@H]12 [Example 17, Potassium 3-[5-(1-carboxylatomethyl-3-methyl-1,2,3-triazolium)-methanethio]-6α-[1-(R)-hydroxyethyl]-7-oxo-1-azabicyclo[3.2.0]hept-2-ene-2-carboxylate]
- MIC ([1]; Enterobacter cloacae, A9659, read-out: MIC): 2 µg/mL
- AUC ([2]; mouse, blood, im): 3400 ng·h/mL
- Cmax ([2]; mouse, blood, im): 11000 ng/mL
- half-life ([2]; mouse, blood, im): 8 min
- MIC [3, 22]: 0.6 µg/mL
- MIC [4, 23]: 0.5 µg/mL
- MIC ([7]; Staphylococcus aureus, A9537, +50% serum, read-out: MIC): 1 µg/mL
- MIC [8, 24]: 4 µg/mL
- MIC ([9]; Morganella morganii, A15153, printed M. morganii A15153, read-out: MIC): 0.5 µg/mL
- MIC [13, 25]: 0.6 µg/mL
- MIC [14, 26]: 2 µg/mL
- MIC [15, 27]: 0.13 µg/mL
- MIC [17, 28]: 16 µg/mL
- MIC ([18]; Providencia rettgeri, A22424, read-out: MIC): 2 µg/mL
- MIC ([19]; Staphylococcus aureus): 0.5 µg/mL

SMILES: C[C@@H](O)[C@H]1C(=O)N2C(C(=O)[O-])=C(SCc3n[n+](C)nn3C)C[C@H]12 [Example 20, (1'R,5R,6S) 3-[(1,3-dimethyl-5-tetrazolium)-methylthio]-6-(1-hydroxyethyl)-7-oxo-1-azabicyclo[3.2.0]hept-2-ene-2-carboxylate]
- AUC ([2]; mouse, blood, im): 15600 ng·h/mL
- Cmax ([2]; mouse, blood, im): 28400 ng/mL
- half-life ([2]; mouse, blood, im): 14 min
- MIC [3, 22]: 2 µg/mL (≈ 5.89 µM)
- MIC [4, 23]: 4 µg/mL (≈ 11.8 µM)
- half-life at 100 µM [20]: 630 min
- MIC ([7]; Staphylococcus aureus, A9537, overnight incubation at 37° C., Nutrient Broth, read-out: MIC): 0.5 µg/mL (≈ 1.47 µM)
- MIC [8, 24]: 16 µg/mL (≈ 47.1 µM)
- MIC ([10]; Serratia marcescens, A20019, read-out: MIC): 4 µg/mL (≈ 11.8 µM)
- MIC ([12]; Proteus mirabilis, A9900, overnight incubation at 37° C., read-out: MIC): 4 µg/mL (≈ 11.8 µM)
- MIC [13, 25]: 1 µg/mL (≈ 2.95 µM)
- MIC [14, 26]: 16 µg/mL (≈ 47.1 µM)
- MIC [15, 27]: 4 µg/mL (≈ 11.8 µM)
- MIC ([16]; Klebsiella pneumoniae, A9664, overnight incubation at 37° C., read-out: MIC): 4 µg/mL (≈ 11.8 µM)
- MIC [17, 28]: 16 µg/mL (≈ 47.1 µM)
